Columns and labels:
Assay type in all cases: physicochemical
Solution photostability = experiment: Solution photostability
Description: Solution Photostability: Weighed ˜1 mg of Form B and dissolved in 3 solutions at different pHs (0.01 N HCl, 0.01 N NaOH and water). Methanol was added as a co-solvent to dissolve Form B in solutions (i.e., 10% (v/v) methanol in 0.01 N HCl, 20% (v/v) in water and 30% (v/v) in 0.01 N NaOH), the final concentration was 0.1 mg/mL. For each solution, 1 sample and 1 control covered in foil were put into the photo chamber for Vis study (2 vials total for each solution). Measure the concentration and monitor the degradation.

[1] = Solubility in Simulated Gastric Fluid (SGF) at 37° C.; conditions: for Resulting Solid: XRPD
Description: To study if Form A and Form B would perform differently in stomach, the solubilities of Form A and Form B were measured in Simulated Gastric Fluid (SGF, see below for SGF preparation) at 37° C. […] The remaining solids after each time point were subject to XRPD analysis. […] Weigh appropriate amount of hydrochloride (HCl) and sodium chloride (NaCl) into a 1-L flask followed by addition of 1-L deionized water. The mixture was stirred until all solids are dissolved. Check pH value with a pH-meter and adjust the pH to 1.8 with HCl (1N) or NaOH (1N).

[2] = Slurry experiments using Form B and Form C (relative stability); conditions: RT
Description: The relative stability between Form B and Form C was investigated as a function of water activity at room temperature using ACN/H2O. In general, about 10-30 mg Form B was added to a 5-ml glass vial with 0.5 ml corresponding solvents to get suspensions at room temperature. Then 10-30 mg Form C was added to the suspensions which were kept stirring for 24 h. The water activity was calculated using the UNIFAC model.

[3] = 0.01N HCl Dark, Vis Stability (1.2 Mil lux-hours)
[4] = 0.01N HCl Dark, Vis-UV Stability (1.2 Mil lux-hours + 200 Watt-hours/m^2)
[5] = 0.01N HCl Light, Vis Stability (1.2 Mil lux-hours)
[6] = 0.01N HCl Light, Vis-UV Stability (1.2 Mil lux-hours + 200 Watt-hours/m^2)
[7] = 0.01N NaOH Dark, Vis Stability (1.2 Mil lux-hours)
[8] = 0.01N NaOH Dark, Vis-UV Stability (1.2 Mil lux-hours + 200 Watt-hours/m^2)
[9] = 0.01N NaOH Light, Vis Stability (1.2 Mil lux-hours), precipitation observed
[10] = 0.01N NaOH Light, Vis-UV Stability (1.2 Mil lux-hours + 200 Watt-hours/m^2), precipitation observed
[11] = H2O Dark, Vis Stability (1.2 Mil lux-hours)
[12] = H2O Dark, Vis-UV Stability (1.2 Mil lux-hours + 200 Watt-hours/m^2)
[13] = H2O Light, Vis Stability (1.2 Mil lux-hours)
[14] = H2O Light, Vis-UV Stability (1.2 Mil lux-hours + 200 Watt-hours/m^2)

CC(C)N(C[C@H]1O[C@@H](n2cnc3c(N)ncnc32)[C@H](O)[C@@H]1O)[C@H]1C[C@@H](CCc2nc3cc(C(C)(C)C)ccc3[nH]2)C1 [Form B, (2R,3R,4S,5R)-2-(6-amino-9H-purin-9-yl)-5-((((1r,3S)-3-(2-(5-(tert-butyl)-1H-benzo[d]imidazol-2-yl)ethyl)cyclobutyl)(isopropyl)amino)methyl)tetrahydrofuran-3,4-diol trihydrate]
% area (Solution photostability; [3]): 99.4% | % claim (Solution photostability; [3]): 100.0% | Final pH (Solution photostability; [3]): 2.1 | % area (Solution photostability; [4]): 99.9% | % claim (Solution photostability; [4]): 100.0% | Final pH (Solution photostability; [4]): 2.1 | % area (Solution photostability; [5]): 98.5% | % claim (Solution photostability; [5]): 98.8% | Final pH (Solution photostability; [5]): 2.1 | % area (Solution photostability; [6]): 99.9% | % claim (Solution photostability; [6]): 99.9% | Final pH (Solution photostability; [6]): 2.1 | % area (Solution photostability; [7]): 99.7% | % claim (Solution photostability; [7]): 100.0% | Final pH (Solution photostability; [7]): 11.6 | % area (Solution photostability; [8]): 100.0% | % claim (Solution photostability; [8]): 100.0% | Final pH (Solution photostability; [8]): 11.7 | Final pH (Solution photostability; 0.01N NaOH Light, Vis Stability (1.2 Mil lux-hours)): 11.7 | % area (Solution photostability; [9]): 99.6% | % claim (Solution photostability; [9]): 44.5% | Final pH (Solution photostability; 0.01N NaOH Light, Vis-UV Stability (1.2 Mil lux-hours + 200 Watt-hours/m^2)): 11.7 | % area (Solution photostability; [10]): 99.3% | % claim (Solution photostability; [10]): 66.3% | % area (Solution photostability; [11]): 100.0% | % claim (Solution photostability; [11]): 100.0% | Final pH (Solution photostability; [11]): 7.7 | % area (Solution photostability; [12]): 100.0% | % claim (Solution photostability; [12]): 100.0% | Final pH (Solution photostability; [12]): 8.1 | % area (Solution photostability; [13]): 99.6% | % claim (Solution photostability; [13]): 98.5% | Final pH (Solution photostability; [13]): 7.3 | % area (Solution photostability; [14]): 99.3% | % claim (Solution photostability; [14]): 94.7% | Final pH (Solution photostability; [14]): 7.3 | observation in solution photostability study (Solution photostability; all solutions in 0.01N NaOH): Precipitation was observed | solution photostability (in words) (Solution photostability; in water and 0.01N HCl solution, UV/Vis exposure): stable upon exposure to UV/Vis | Final pH [1]: 5.3 | Resulting Solid ([1]; 15 min): Type B | Resulting Solid ([1]; 30 min): Type B | Resulting Solid ([1]; 60 min): Type B | solubility at 15 min ([1]; Simulated Gastric Fluid (SGF), pH 1.8, simulated gastric fluid, thermodynamic from solid, 15 min, calculated using free base content): 5400 µg/mL | solubility at 30 min ([1]; Simulated Gastric Fluid (SGF), pH 1.8, simulated gastric fluid, thermodynamic from solid, 30 min, calculated using free base content): 5400 µg/mL | solubility at 60 min ([1]; Simulated Gastric Fluid (SGF), pH 1.8, simulated gastric fluid, thermodynamic from solid, 60 min, calculated using free base content): 5600 µg/mL | water activity at which Form B is thermodynamically more stable than Form C [2]: ≥ 0.30

From US11753433B2, “Methods of synthesizing substituted purine compounds” (Epizyme, Inc., priority 2013, dated 2023)
